# Reference: patent EP4635500A1, “THERAPEUTIC AGENT FOR BACTERIAL INFECTION” (Sumitomo Pharma Co., Ltd., priority 2022, dated 2024)
# Like-named read-outs stand apart in the source and are kept apart here.
# Columns and labels:
# 53 CRE and CPE strains = assay: MICrange, MIC50, MIC80, MIC90 for 53 bacterial isolates (Example 5, Table 5); format: cell-based; conditions: 53 bacterial isolates
# P. aeruginosa = assay: MIC, broth microdilution, CDC/FDA Antibiotic Resistance Isolate Bank (Example 7, Tables 10, 15); format: cell-based; conditions: for MIC: Pseudomonas aeruginosa, read-out: MIC
# [1] = 26 metallo-carbapenemase-producing P. aeruginosa strains, β-lactamase inhibitor µg/mL in parentheses
# [2] = 96 strains of P. aeruginosa, β-lactamase inhibitor µg/mL in parentheses
compound,measurement,setting,value
"CO/N=C(\C(=O)N[C@@H]1C(=O)N2C(C(=O)[O-])=C(C[n+]3ccn4ncccc43)CS[C@H]12)c1nsc(N)n1 [Cefozopran, cefozopran]",MIC50,53 CRE and CPE strains; read-out: MIC50,32 µg/mL
same,MIC80,53 CRE and CPE strains; read-out: MIC80,> 64 µg/mL
same,MIC90,53 CRE and CPE strains; read-out: MIC90,> 64 µg/mL
same,MIC against 26 metallo-carbapenemase-producing strains MIC50,P. aeruginosa; [1],>64 µg(mL)
same,MIC against 26 metallo-carbapenemase-producing strains MIC90,P. aeruginosa; [1],>64 µg(mL)
same,MIC against 26 metallo-carbapenemase-producing strains MICrange,P. aeruginosa; [1],>64 µg(mL)
same,MIC against 96 strains of P. aeruginosa MIC50,P. aeruginosa; [2],32 µg(mL)
same,MIC against 96 strains of P. aeruginosa MIC90,P. aeruginosa; [2],>64 µg(mL)
same,MIC,"P. aeruginosa; P. aeruginosa KUB No. 579, AR Bank # 447",0.5 µg/mL
same,MIC,"P. aeruginosa; P. aeruginosa KUB No. 5083, AR Bank # 250",> 64 µg/mL
same,MIC,"P. aeruginosa; P. aeruginosa KUB No. 5551, AR Bank # 54",> 64 µg/mL
same,MIC,"P. aeruginosa; P. aeruginosa KUB No. 5561, AR Bank # 64",> 64 µg/mL
same,MIC,"P. aeruginosa; P. aeruginosa KUB No. 5587, AR Bank # 90",> 64 µg/mL
same,MIC,"P. aeruginosa; P. aeruginosa KUB No. 5589, AR Bank # 92",> 64 µg/mL
same,MIC,"P. aeruginosa; P. aeruginosa KUB No. 5591, AR Bank # 94",64 µg/mL
same,MIC,"P. aeruginosa; P. aeruginosa KUB No. 5592, AR Bank # 95",1 µg/mL
same,MIC,"P. aeruginosa; P. aeruginosa KUB No. 5597, AR Bank # 100",> 64 µg/mL
same,MIC,"P. aeruginosa; P. aeruginosa KUB No. 5600, AR Bank # 103",> 64 µg/mL
same,MIC,"P. aeruginosa; P. aeruginosa KUB No. 5602, AR Bank # 105",16 µg/mL
same,MIC,"P. aeruginosa; P. aeruginosa KUB No. 5605, AR Bank # 108",> 64 µg/mL
same,MIC,"P. aeruginosa; P. aeruginosa KUB No. 5607, AR Bank # 110",> 64 µg/mL
same,MIC,"P. aeruginosa; P. aeruginosa KUB No. 5608, AR Bank # 111",> 64 µg/mL
same,MIC,"P. aeruginosa; P. aeruginosa KUB No. 5662, AR Bank # 229",16 µg/mL
same,MIC,"P. aeruginosa; P. aeruginosa KUB No. 5663, AR Bank # 230",> 64 µg/mL
same,MIC,"P. aeruginosa; P. aeruginosa KUB No. 5664, AR Bank # 231",> 64 µg/mL
same,MIC,"P. aeruginosa; P. aeruginosa KUB No. 5665, AR Bank # 232",4 µg/mL
same,MIC,"P. aeruginosa; P. aeruginosa KUB No. 5666, AR Bank # 23",2 µg/mL
same,MIC,"P. aeruginosa; P. aeruginosa KUB No. 5667, AR Bank # 234",2 µg/mL
same,MIC,"P. aeruginosa; P. aeruginosa KUB No. 5668, AR Bank # 235",> 64 µg/mL
same,MIC,"P. aeruginosa; P. aeruginosa KUB No. 5669, AR Bank # 236",4 µg/mL
same,MIC,"P. aeruginosa; P. aeruginosa KUB No. 5670, AR Bank # 237",0.5 µg/mL
same,MIC,"P. aeruginosa; P. aeruginosa KUB No. 5671, AR Bank # 238",1 µg/mL
same,MIC,"P. aeruginosa; P. aeruginosa KUB No. 5672, AR Bank # 239",> 64 µg/mL
same,MIC,"P. aeruginosa; P. aeruginosa KUB No. 5673, AR Bank # 240",> 64 µg/mL
same,MIC,"P. aeruginosa; P. aeruginosa KUB No. 5674, AR Bank # 241",> 64 µg/mL
same,MIC,"P. aeruginosa; P. aeruginosa KUB No. 5675, AR Bank # 242",> 64 µg/mL
same,MIC,"P. aeruginosa; P. aeruginosa KUB No. 5676, AR Bank # 243",> 64 µg/mL
same,MIC,"P. aeruginosa; P. aeruginosa KUB No. 5677, AR Bank # 244",8 µg/mL
same,MIC,"P. aeruginosa; P. aeruginosa KUB No. 5678, AR Bank # 245",> 64 µg/mL
same,MIC,"P. aeruginosa; P. aeruginosa KUB No. 5679, AR Bank # 246",> 64 µg/mL
same,MIC,"P. aeruginosa; P. aeruginosa KUB No. 5680, AR Bank # 247",4 µg/mL
same,MIC,"P. aeruginosa; P. aeruginosa KUB No. 5681, AR Bank # 248",> 64 µg/mL
same,MIC,"P. aeruginosa; P. aeruginosa KUB No. 5682, AR Bank # 249",> 64 µg/mL
same,MIC,"P. aeruginosa; P. aeruginosa KUB No. 5684, AR Bank # 251",8 µg/mL
same,MIC,"P. aeruginosa; P. aeruginosa KUB No. 5685, AR Bank # 252",16 µg/mL
same,MIC,"P. aeruginosa; P. aeruginosa KUB No. 5686, AR Bank # 253",4 µg/mL
same,MIC,"P. aeruginosa; P. aeruginosa KUB No. 5687, AR Bank # 254",> 64 µg/mL
same,MIC,"P. aeruginosa; P. aeruginosa KUB No. 5688, AR Bank # 255",> 64 µg/mL
same,MIC,"P. aeruginosa; P. aeruginosa KUB No. 5689, AR Bank # 256",0.5 µg/mL
same,MIC,"P. aeruginosa; P. aeruginosa KUB No. 5690, AR Bank # 257",8 µg/mL
same,MIC,"P. aeruginosa; P. aeruginosa KUB No. 5691, AR Bank # 258",1 µg/mL
same,MIC,"P. aeruginosa; P. aeruginosa KUB No. 5692, AR Bank # 259",1 µg/mL
same,MIC,"P. aeruginosa; P. aeruginosa KUB No. 5693, AR Bank # 260",4 µg/mL
same,MIC,"P. aeruginosa; P. aeruginosa KUB No. 5694, AR Bank # 261",4 µg/mL
same,MIC,"P. aeruginosa; P. aeruginosa KUB No. 5695, AR Bank # 262",2 µg/mL
same,MIC,"P. aeruginosa; P. aeruginosa KUB No. 5696, AR Bank # 263",2 µg/mL
same,MIC,"P. aeruginosa; P. aeruginosa KUB No. 5697, AR Bank # 264",0.5 µg/mL
same,MIC,"P. aeruginosa; P. aeruginosa KUB No. 5698, AR Bank # 265",8 µg/mL
same,MIC,"P. aeruginosa; P. aeruginosa KUB No. 5699, AR Bank # 266",8 µg/mL
same,MIC,"P. aeruginosa; P. aeruginosa KUB No. 5700, AR Bank # 267",4 µg/mL
same,MIC,"P. aeruginosa; P. aeruginosa KUB No. 5701, AR Bank # 268",32 µg/mL
same,MIC,"P. aeruginosa; P. aeruginosa KUB No. 5702, AR Bank # 269",1 µg/mL
same,MIC,"P. aeruginosa; P. aeruginosa KUB No. 5703, AR Bank # 270",4 µg/mL
same,MIC,"P. aeruginosa; P. aeruginosa KUB No. 5704, AR Bank # 271",1 µg/mL
same,MIC,"P. aeruginosa; P. aeruginosa KUB No. 5705, AR Bank # 272",0.5 µg/mL
same,MIC,"P. aeruginosa; P. aeruginosa KUB No. 5747, AR Bank # 351",> 64 µg/mL
same,MIC,"P. aeruginosa; P. aeruginosa KUB No. 5748, AR Bank # 352",> 64 µg/mL
same,MIC,"P. aeruginosa; P. aeruginosa KUB No. 5749, AR Bank # 353",> 64 µg/mL
same,MIC,"P. aeruginosa; P. aeruginosa KUB No. 5750, AR Bank # 354",8 µg/mL
same,MIC,"P. aeruginosa; P. aeruginosa KUB No. 5751, AR Bank # 355",16 µg/mL
same,MIC,"P. aeruginosa; P. aeruginosa KUB No. 5752, AR Bank # 356",> 64 µg/mL
same,MIC,"P. aeruginosa; P. aeruginosa KUB No. 5753, AR Bank # 357",> 64 µg/mL
same,MIC,"P. aeruginosa; P. aeruginosa KUB No. 5754, AR Bank # 358",16 µg/mL
same,MIC,"P. aeruginosa; P. aeruginosa KUB No. 5755, AR Bank # 359",16 µg/mL
same,MIC,"P. aeruginosa; P. aeruginosa KUB No. 5756, AR Bank # 360",8 µg/mL
same,MIC,"P. aeruginosa; P. aeruginosa KUB No. 5785, AR Bank # 439",> 64 µg/mL
same,MIC,"P. aeruginosa; P. aeruginosa KUB No. 5786, AR Bank # 440",32 µg/mL
same,MIC,"P. aeruginosa; P. aeruginosa KUB No. 5787, AR Bank # 441",> 64 µg/mL
same,MIC,"P. aeruginosa; P. aeruginosa KUB No. 5788, AR Bank # 443",> 64 µg/mL
same,MIC,"P. aeruginosa; P. aeruginosa KUB No. 5789, AR Bank # 444",> 64 µg/mL
same,MIC,"P. aeruginosa; P. aeruginosa KUB No. 5790, AR Bank # 445",32 µg/mL
same,MIC,"P. aeruginosa; P. aeruginosa KUB No. 5793, AR Bank # 449",> 64 µg/mL
same,MIC,"P. aeruginosa; P. aeruginosa KUB No. 5798, AR Bank # 455",32 µg/mL
same,MIC,"P. aeruginosa; P. aeruginosa KUB No. 5799, AR Bank # 456",32 µg/mL
same,MIC,"P. aeruginosa; P. aeruginosa KUB No. 5800, AR Bank # 457",> 64 µg/mL
same,MIC,"P. aeruginosa; P. aeruginosa KUB No. 5801, AR Bank # 458",64 µg/mL
same,MIC,"P. aeruginosa; P. aeruginosa KUB No. 5802, AR Bank # 459",32 µg/mL
same,MIC,"P. aeruginosa; P. aeruginosa KUB No. 5804, AR Bank # 862",32 µg/mL
same,MIC,"P. aeruginosa; P. aeruginosa KUB No. 5805, AR Bank # 863",> 64 µg/mL
same,MIC,"P. aeruginosa; P. aeruginosa KUB No. 5806, AR Bank # 864",64 µg/mL
same,MIC,"P. aeruginosa; P. aeruginosa KUB No. 5813, AR Bank # 508",> 0.064 µg/mL
same,MIC,"P. aeruginosa; P. aeruginosa KUB No. 5814, AR Bank # 509",> 0.064 µg/mL
same,MIC,"P. aeruginosa; P. aeruginosa KUB No. 5815, AR Bank # 510",0.004 µg/mL
same,MIC,"P. aeruginosa; P. aeruginosa KUB No. 5816, AR Bank # 511",0.0005 µg/mL
same,MIC,"P. aeruginosa; P. aeruginosa KUB No. 5817, AR Bank # 512",0.002 µg/mL
same,MIC,"P. aeruginosa; P. aeruginosa KUB No. 5818, AR Bank # 513",0.016 µg/mL
same,MIC,"P. aeruginosa; P. aeruginosa KUB No. 5819, AR Bank # 514",0.0005 µg/mL
same,MIC,"P. aeruginosa; P. aeruginosa KUB No. 5820, AR Bank # 515",0.064 µg/mL
same,MIC,"P. aeruginosa; P. aeruginosa KUB No. 5821, AR Bank # 516",> 0.064 µg/mL
same,MIC,"P. aeruginosa; P. aeruginosa KUB No. 5823, AR Bank # 518",> 0.064 µg/mL
same,MIC,"P. aeruginosa; P. aeruginosa KUB No. 5831, AR Bank # 526",0.008 µg/mL
same,MIC,"P. aeruginosa; P. aeruginosa KUB No. 5832, AR Bank # 527",0.008 µg/mL
same,MIC,"P. aeruginosa; P. aeruginosa KUB No. 5833, AR Bank # 528",0.032 µg/mL
same,MIC,"P. aeruginosa; P. aeruginosa KUB No. 5834, AR Bank # 529",0.008 µg/mL
